Assay results reported in patent publication US20100210611A1, “COMBINATION THERAPY” (priority 2007, published 2010).

Tested on: Ascaris challenge in allergic sheep
Experiment: Allergic sheep model: EAR, LAR and AHR response to Ascaris challenge
Assay type: in vivo
Details: for AHR (%) inhibition / EAR (%) Inhibition / LAR (%) inhibition: single dose 30 minutes before Ascaris challenge
Protocol: The allergic sheep model was used to test the effect of inhaled montelukast acid against early asthmatic response (EAR), late asthmatic response (LAR) and airway hyper-reactivity (AHR) response to Ascaris challenge in allergic sheep. The compound was administered directly into the lungs using the Spinhaler DPI that was attached directly to an indwelling endotracheal tube. Capsules used in the Spinhaler contained a micronized blend of 20% drug/80% lactose, corresponding to approx. 5 mg of the active compound. The compound was administered as a single dose 30 minutes before Ascaris challenge. To optimize delivery, each Spinhaler actuation was synchronized with a series of aspiratory cycles.
Doses for inhalation were selected based on total IV doses administered in sheep studies that had been conducted. Administration of 3 or 9 capsules should achieve a total inhaled dose of approximately 0.1 mg/kg and 0.3 mg/kg, respectively. The purported dose delivered is an estimate based on an experimentally determined fine particle fraction efficiency of 30%. Plasma drug levels were measured at various time points throughout the study.
Initial experiments (n=2) were performed with 0.1 mg/kg of montelukast acid. […] The second set of experiments (n=4) was performed with 0.3 mg/kg of montelukast acid.

[1] = Approx. 0.1 mg/kg (3 capsules) inhaled via Spinhaler, n=2
[2] = Approx. 0.3 mg/kg (9 capsules) inhaled via Spinhaler, n=4

With `CC(C)(O)c1ccccc1CC[C@@H](SCC1(CC(=O)O)CC1)c1cccc(/C=C/c2ccc3ccc(Cl)cc3n2)c1` [Montelukast Acid, montelukast acid] the “inhibition of EAR, LAR and AHR (in words)” value (0.1 mg/kg inhaled, n=2) was “partial inhibition of the LAR and AHR but not the EAR”, the “inhibition of EAR, LAR and AHR (in words)” value (0.3 mg/kg inhaled, n=4) was “Marked inhibition of all three phases of the response” and the “AHR (%) inhibition” value [1] was 60%. For the same compound, the “EAR (%) Inhibition” value [1] was 7%, the “LAR (%) inhibition” value [1] was 42% and the “AHR (%) inhibition” value [2] was 76%. The “EAR (%) Inhibition” value [2] was 47% and the “LAR (%) inhibition” value [2] was 79%.
